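48-hour exposure; five concentrations; linearly interpolated endpoints. GI50 = concentration required for 50% inhibition of growth. TGI: total growth inhibition.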
Assays:
Experiment in all cases: NCI anticancer screen, dose series, 48 h
[1] = system: OVCAR-8 ovarian
[2] = system: MDA-N
[3] = system: HT29 colon
[4] = system: A498 renal
[5] = system: UACC-62 melanoma
[6] = system: RXF 393 renal
[7] = system: MOLT-4 leukemia
[8] = system: CCRF-CEM leukemia
[9] = system: HL-60(TB) leukemia
[10] = system: HCT-15 colon
[11] = system: K-562 leukemia
[12] = system: SW-620 colon
[13] = system: OVCAR-4 ovarian
[14] = system: OVCAR-5 ovarian
[15] = system: CAKI-1 renal
[16] = system: SK-MEL-5 melanoma
[17] = system: NCI-H226 lung
[18] = system: UACC-257 melanoma
[19] = system: MALME-3M melanoma
[20] = system: HOP-92 NSCLC
[21] = system: HCC-2998 colon
[22] = system: SNB-19 CNS
[23] = system: SN12C renal
[24] = system: NCI/ADR-RES ovarian
[25] = system: NCI-H460 lung
[26] = system: DU-145 prostate
[27] = system: MDA-MB-231 breast
[28] = system: SNB-75 CNS
[29] = system: PC-3 prostate
[30] = system: M14 melanoma
[31] = system: SF-295 CNS
[32] = system: IGROV1 ovarian
[33] = system: COLO 205 colon
[34] = system: 786-0 renal
[35] = system: HS 578T breast
[36] = system: TK-10 renal
[37] = system: NCI-H23 lung
[38] = system: HCT-116 colon
[39] = system: MDA-MB-435
[40] = system: ACHN renal
[41] = system: BT-549 breast
[42] = system: SK-OV-3 ovarian
[43] = system: MCF7 breast
[44] = system: U251 CNS
[45] = system: SF-539 CNS
[46] = system: SK-MEL-28 melanoma
[47] = system: KM12 colon
[48] = system: UO-31 renal
[49] = system: LOX IMVI melanoma
[50] = system: EKVX NSCLC
[51] = system: OVCAR-3 ovarian
[52] = system: T-47D breast
[53] = system: SF-268 CNS
[54] = system: SK-MEL-2 melanoma
[55] = system: A549 NSCLC
[56] = system: NCI-H522 lung
[57] = system: RPMI-8226 leukemia
[58] = system: HOP-62 NSCLC
[59] = system: SR leukemia

For CCC1(CC)CC(=NNS(=O)(=O)c2ccc(C)cc2)C1, the TGI [1] was > 100 µM, the TGI [2] was > 100 µM and the TGI [3] was > 100 µM. For the same compound, the TGI [4] was > 100 µM, the TGI [5] was > 100 µM and the TGI [6] was > 100 µM. For the same compound, the TGI [7] was > 100 µM, the TGI [8] was > 100 µM and the TGI [9] was > 100 µM. The TGI [10] was > 100 µM, the TGI [11] was > 100 µM and the TGI [12] was > 100 µM. For the same compound, the TGI [13] was > 100 µM, the TGI [14] was > 100 µM and the TGI [15] was > 100 µM. The TGI [16] was > 100 µM, the TGI [17] was > 100 µM and the TGI [18] was > 100 µM. The TGI [19] was > 100 µM, the TGI [20] was > 100 µM and the TGI [21] was > 100 µM. The TGI [22] was > 100 µM, the TGI [23] was > 100 µM and the TGI [24] was > 100 µM. For the same compound, the TGI [25] was > 100 µM, the TGI [26] was > 100 µM and the TGI [27] was > 100 µM. For the same compound, the TGI [28] was > 100 µM, the TGI [29] was > 100 µM and the TGI [30] was > 100 µM. For the same compound, the TGI [31] was > 100 µM, the TGI [32] was > 100 µM and the TGI [33] was > 100 µM. The TGI [34] was > 100 µM, the TGI [35] was > 100 µM and the TGI [36] was > 100 µM. For the same compound, the TGI [37] was > 100 µM, the TGI [38] was > 100 µM and the TGI [39] was > 100 µM. For the same compound, the TGI [40] was > 100 µM, the TGI [41] was > 100 µM and the TGI [42] was > 100 µM. The TGI [43] was > 100 µM, the TGI [44] was > 100 µM and the TGI [45] was > 100 µM. The TGI [46] was > 100 µM, the TGI [47] was > 100 µM and the TGI [48] was > 100 µM. The TGI [49] was > 100 µM, the TGI [50] was > 100 µM and the TGI [51] was > 100 µM. The TGI [52] was > 100 µM, the TGI [53] was > 100 µM and the TGI [54] was > 100 µM. The TGI [55] was > 100 µM and the TGI [56] was > 100 µM.

With CN(C(=O)Cc1cc(Cl)c(Cl)cc1N=C=S)[C@H]1CCCC[C@@H]1N1CCCC1 the TGI [1] was 28.8 µM, the TGI [2] was 28.1 µM and the TGI [3] was 18.7 µM. It also gave a TGI [4] of 27 µM, a TGI [5] of 30.3 µM and a TGI [6] of 13.1 µM. It also gave a TGI [7] of 14.2 µM, a TGI [8] of 7.32 µM and a TGI [9] of 23.8 µM. The TGI [10] was 29.1 µM, the TGI [11] was 5.89 µM and the TGI [12] was 23.6 µM. It also gave a TGI [13] of 26.3 µM, a TGI [14] of 31.7 µM and a TGI [15] of 29.2 µM. It also gave a TGI [16] of 27.8 µM, a TGI [18] of 28 µM and a TGI [19] of 31.8 µM. For the same compound, the TGI [20] was 21.9 µM, the TGI [22] was 27.4 µM and the TGI [23] was 30.3 µM. For the same compound, the TGI [24] was 36.9 µM, the TGI [25] was 22 µM and the TGI [26] was 27.8 µM. It also gave a TGI [27] of 28.6 µM, a TGI [28] of 27.9 µM and a TGI [29] of 26.3 µM. It also gave a TGI [30] of 29.6 µM, a TGI [31] of 31.9 µM and a TGI [32] of 28.1 µM. For the same compound, the TGI [57] was 28 µM, the TGI [58] was 27.9 µM and the TGI [33] was 26.8 µM. For the same compound, the TGI [34] was 25.5 µM, the TGI [59] was 3.49 µM and the TGI [35] was 42.4 µM. It also gave a TGI [36] of 23.5 µM, a TGI [37] of 30.5 µM and a TGI [38] of 21.7 µM. For the same compound, the TGI [39] was 17 µM, the TGI [40] was 28.7 µM and the TGI [41] was 29.5 µM. It also gave a TGI [42] of 32.3 µM, a TGI [43] of 30.1 µM and a TGI [44] of 28.2 µM. The TGI [45] was 46 µM, the TGI [46] was 7.65 µM and the TGI [47] was 29.7 µM. For the same compound, the TGI [48] was 29.1 µM, the TGI [49] was 13.3 µM and the TGI [50] was 31.7 µM. It also gave a TGI [51] of 29.6 µM, a TGI [52] of 37.4 µM and a TGI [53] of 31.4 µM. The TGI [54] was 29.2 µM, the TGI [55] was 30.6 µM and the TGI [56] was 27.7 µM.

In the case of O=C(CN1CCNCCN(CC(=O)N2CCCCC2)CCNCC1)N1CCCCC1, the TGI [1] is reported as > 100 µM, the TGI [2] is reported as > 100 µM and the TGI [3] is reported as > 100 µM. For the same compound, the TGI [4] was > 100 µM, the TGI [5] was > 100 µM and the TGI [7] was > 100 µM. For the same compound, the TGI [8] was > 100 µM, the TGI [9] was 69.4 µM and the TGI [10] was > 100 µM. The TGI [11] was > 100 µM, the TGI [12] was > 100 µM and the TGI [13] was > 100 µM. The TGI [14] was > 100 µM, the TGI [15] was > 100 µM and the TGI [16] was > 100 µM. The TGI [17] was > 100 µM, the TGI [18] was > 100 µM and the TGI [19] was > 100 µM. For the same compound, the TGI [20] was > 100 µM, the TGI [22] was > 100 µM and the TGI [23] was > 100 µM. For the same compound, the TGI [24] was > 100 µM, the TGI [25] was > 100 µM and the TGI [26] was > 100 µM. The TGI [27] was > 100 µM, the TGI [28] was > 100 µM and the TGI [29] was > 100 µM. For the same compound, the TGI [30] was > 100 µM, the TGI [31] was > 100 µM and the TGI [32] was > 100 µM. For the same compound, the TGI [57] was > 100 µM, the TGI [58] was > 100 µM and the TGI [33] was > 100 µM. For the same compound, the TGI [34] was > 100 µM, the TGI [59] was > 100 µM and the TGI [35] was > 100 µM. For the same compound, the TGI [36] was > 100 µM, the TGI [38] was > 100 µM and the TGI [39] was > 100 µM. For the same compound, the TGI [40] was > 100 µM, the TGI [41] was > 100 µM and the TGI [42] was > 100 µM. For the same compound, the TGI [43] was > 100 µM, the TGI [44] was > 100 µM and the TGI [45] was > 100 µM. For the same compound, the TGI [46] was > 100 µM, the TGI [47] was > 100 µM and the TGI [48] was > 100 µM. For the same compound, the TGI [49] was > 100 µM, the TGI [50] was > 100 µM and the TGI [51] was > 100 µM. For the same compound, the TGI [52] was > 100 µM, the TGI [54] was > 100 µM and the TGI [55] was > 100 µM. The TGI [56] was > 100 µM.

With CC(=O)OCC(OC(C)=O)C(OC(C)=O)C(C=NN(C(C)=O)S(=O)(=O)c1ccc(/C=C2\NC(=O)NC2=O)cc1)OC(C)=O (configuration not stated) the TGI [1] was > 100 µM, the TGI [2] was > 100 µM and the TGI [3] was > 100 µM. For the same compound, the TGI [4] was > 100 µM, the TGI [5] was > 100 µM and the TGI [6] was > 100 µM. For the same compound, the TGI [7] was > 100 µM, the TGI [8] was > 100 µM and the TGI [10] was > 100 µM. For the same compound, the TGI [11] was > 100 µM, the TGI [12] was > 100 µM and the TGI [13] was > 100 µM. For the same compound, the TGI [14] was > 100 µM, the TGI [15] was > 100 µM and the TGI [16] was > 100 µM. The TGI [17] was > 100 µM, the TGI [18] was > 100 µM and the TGI [19] was > 100 µM. The TGI [21] was > 100 µM, the TGI [22] was > 100 µM and the TGI [23] was > 100 µM. For the same compound, the TGI [24] was > 100 µM, the TGI [25] was > 100 µM and the TGI [26] was > 100 µM. The TGI [27] was > 100 µM, the TGI [28] was > 100 µM and the TGI [29] was > 100 µM. For the same compound, the TGI [30] was > 100 µM, the TGI [31] was > 100 µM and the TGI [32] was > 100 µM. The GI50 [57] was > 100 µM, the TGI [57] was > 100 µM and the TGI [58] was > 100 µM. The TGI [33] was > 100 µM, the TGI [34] was > 100 µM and the TGI [59] was > 100 µM. The TGI [35] was > 100 µM, the TGI [36] was > 100 µM and the TGI [37] was > 100 µM. For the same compound, the TGI [38] was > 100 µM, the TGI [39] was > 100 µM and the TGI [40] was > 100 µM. The TGI [41] was > 100 µM, the TGI [42] was > 100 µM and the TGI [43] was > 100 µM. For the same compound, the TGI [44] was > 100 µM, the TGI [45] was > 100 µM and the TGI [48] was > 100 µM. The TGI [50] was > 100 µM, the TGI [51] was > 100 µM and the TGI [52] was > 100 µM. For the same compound, the TGI [53] was > 100 µM, the TGI [54] was > 100 µM and the TGI [55] was > 100 µM.
